Marks after values point to notes of the source that are not given here. Starred links: 1 amine or outer side, 2 acyl side, 3 side chain; linkers in the order of their positions; H or OH if unused. Positions of bridges follow the written chain, without caps; N, C: chain ends. Non-standard residues stand in square brackets, D forms with d. Residues, ends and D or L forms follow the SMILES beside them. Chains are numbered I, II in the order given. Actinocin(9to1) = Cc1c2oc3c(C)ccc(C(=O)[*:1])c3nc-2c(C(=O)[*:2])c(N)c1=O; NMeV = CN[C@H](C(=O)O)C(C)C; Sar = CNCC(=O)O
Assays:
Na^+K^+ATPase = assay: Na+K+ATPase activity in lung tissue; format: in vivo, mouse; settings: male BALB/c mice, Mean ± SD, same dosing groups
tissue factor (TF) = assay: Tissue factor activity in lung tissue (Quick's one-stage method); format: in vivo, mouse; settings: male BALB/c mice, Mean ± SD, Quick's one-stage method using normal plasma, same dosing groups
[1] = system: glutathione peroxidase (GPx); assay: Glutathione peroxidase activity in lung tissue; format: in vivo, mouse; settings: male BALB/c mice, Mean ± SD, same dosing groups
catalase (CAT) = assay: Catalase activity in lung tissue; format: in vivo, mouse; settings: male BALB/c mice, Mean ± SD, same dosing groups
active caspase-3 = assay: Active caspase-3 immunoreactivity (labeling index) in alveolar area; format: in vivo, mouse; settings: male BALB/c mice, active caspase-3 immunoreactive cells, teduglutide 200 μg/kg s.c. every 12 hours for 10 days, TNF-alpha 15 μg/kg i.p., Act D 800 μg/kg i.p.
Experimental: (§1) In this study, 8-10 months male BALB/c mice were used. Mice were divided into 6 groups: • Group I (Control group): Mice injected with 0.1% dimethylsulfoxide (DMSO) and phosphate buffered saline (PBS, pH 7.4) via intraperitoneal way. • Group II: Mice injected with 15 μg/kg TNF-alpha (dissolved in PBS) with single dose via intraperitoneal way. • Group III: Mice injected with 800 μg/kg Act D (dissolved in DMSO) with single dose via intraperitoneal way. • Group IV: The mice given with TNF-alpha 2 minutes after Act D is administered in doses and mode of administrations above. • Group V: The mice given with 200 μg/kg teduglutide (dissolved in PBS) for 10 days uninterruptedly in every 12 hours via subcutaneous injection. • Group VI: TNF-alpha was injected to mice to which teduglutide was administered for 10 days as mentioned above, 2 minutes after Act D was administered in 11th day in above doses and mode of administration.
(§2) The mice in Group V were cut with cervical dislocation 16.5 hours after the last administration, and the mice in other groups were cut 4.5 hours after the last administration, and the lung samples were taken for microscopic and biochemical analysis.
For the identification of apoptosis in the tissue, as another way, active caspase-3 immunoreactivity was tested. For this purpose, streptavidin-biotin-peroxidase immune method was used. Sections of left lung fixed with neutral formalin were treated with 0.3% triton X-100 for 10 minutes after dewaxing and rehydratation. Following this process, they heated in 10 mM citrate buffer (pH 6.0) for 15 min in a microwave oven. The sections were incubated for 10 minutes with 3% H2O2 for blocking of endogenous peroxidase activity. The next steps were performed according to the instructions in Histostain Plus Broad Spectrum Kit (Invitrogen). The sections were incubated with polyclonal rabbit active caspase 3 antibody (1:50 in PBS, Millipore) for 1 hour at room temperature.
Immunoreaction was developed with 3-amino-9-ethylcarbazole. The sections were stained with Mayer's hematoxilin following immunostaining. PBS or nonspecific rabbit IgG primary antibody were used as negative controls.
Quantitative analysis of immunoreactive cells labeled with caspase-3 antibody was made with light microscope at ×400 magnification. For the immunoreactive cell count, 5 randomly selected fields of alveolar areas without bronchioles were examined in the lung sections of each mouse. The labeling index for caspase-3 was calculated as a percentage of immunoreactive cells in the total number of cells counted per section.

[2] = system: superoxide dismutase (SOD); assay: Superoxide dismutase activity in lung tissue; format: in vivo, mouse; settings: male BALB/c mice, Mean ± SD, same dosing groups
[3] = system: patients with short bowel syndrome; settings: s.c. 0.05 or 0.10 mg/kg/day; cited from earlier work
[4] = system: patients having intestinal damage with short bowel syndrome; settings: cited from earlier work
xanthine oxidase (XO) = assay: Xanthine oxidase activity in lung tissue; format: in vivo, mouse; settings: male BALB/c mice, Mean ± SD, same dosing groups
myeloperoxidase (MPO) = assay: Myeloperoxidase activity in lung tissue; format: in vivo, mouse; settings: male BALB/c mice, Mean ± SD, same dosing groups
lipid peroxidation (LPO) = assay: Lipid peroxidation (LPO) level in lung homogenate; format: in vivo, mouse; settings: lung tissue, male BALB/c mice, Mean ± SD, same dosing groups
GSH (glutathione) = assay: GSH level in lung homogenate (Beutler method); format: in vivo, mouse; settings: lung tissue, male BALB/c mice, Mean ± SD, same dosing groups
type II pneumocytes = assay: Type II pneumocyte count (Pro-SPC immunostaining) in alveolar epithelium; format: in vivo, mouse; settings: male BALB/c mice, Pro-SPC immunoreactive cells in total number of cells, same dosing groups
Experimental: (§3) In this study, 8-10 months male BALB/c mice were used. […]
Strep-ABC immunostaining method was used in order to determine proliferative cells in the alveolar area. […] Furthermore, since it is known that type II pneumocytes give new ones to replace type I and type II pneumocytes which die or lose function in the damaged alveolar epithelium, the number of type II pneumocytes in the alveolar area were analyzed in the experimental groups. […] Proliferation index and number of type II pneumocytes in the alveolar area were calculated as ratio of immunoreactive cells in total number of cells, and the value was expressed as %. […]

[5] = system: apoptotic cells in the lung (alveolar areas); assay: TUNEL apoptotic index in alveolar area of lung; format: in vivo, mouse; settings: male BALB/c mice, teduglutide 200 μg/kg s.c. every 12 hours for 10 days, TNF-alpha 15 μg/kg i.p., Act D 800 μg/kg i.p.
Experimental: as §1, §2
TUNEL (Terminal deoxynucleotidyl transferase-mediated dUTP-nick end labeling assay) method was used to identify apoptotic cells in the lung. In this method, left lung sections fixed with 10% neutral formalin for 24 hours were used. Lung sections in thickness of 5 μm were treated with proteinase K (20 ug/ml) following rehydratation, and then endogenous peroxidase activity was blocked with 3% H2O2.
Marking step was carried out with commercially available ApopTag Plus Peroxidase kit (Millipore). The reaction in apoptotic cells was developed with […]. Following this process, cell nuclei were made visible in staining with methylene green. Mice breast tissue was used as positive control. […] TUNEL positive cells in the lung were analyzed under light microscope at 400× magnification. The apoptotic index value was calculated as a percentage of apoptotic cells in total number of cells.

[6] = system: alveolar wall of mice lung; assay: Hematoxylin-eosin histology of lung sections (alveolar wall damage); format: in vivo, mouse; settings: HE-stained lung sections, male BALB/c mice; same dosing groups
Experimental: TNF-alpha and/or Act D was administered to mice in the experiments. Act D is used in order to increase the cytotoxic effect of TNF-alpha in lung tissues. In this way, pulmonary epithelial, endothelial and mesenchymal cells were damaged in mouse lung by stimulating apoptosis, inflammation and oxidative stress. TNF-alpha. Act D and especially the combination of TNF-alpha/Act D cause the damage in alveolar wall of mice lung; it reduces the tissue factor (TF) and sodium-potassium ATPase (Na-K-ATPase) activities while stimulating apoptosis in pulmonary endotheliaL % epithelial cells, myeloperoxidase (MPO) activity in tissue and oxidative stress.
as §3

[7] = system: patients with short bowel syndrome; settings: 11 patients with short bowel syndrome, s.c. 0.4 mg 3 times a day, 13, 26, 52 weeks; cited from earlier work
[8] = humans, short bowel syndrome, teduglutide s.c. 0.05 or 0.10 mg/kg/day, 52 weeks

Molecule	Na^+K^+ATPase (Na^+K^+ATPase)	TF (tissue factor (TF))	GPx [1]	CAT (catalase (CAT))	caspase-3 index in alveolar areas in mice (active caspase-3) [%]	SOD [2]	LPO (lipid peroxidation (LPO))	GSH (GSH (glutathione))	apoptotic index in alveolar areas in mice [5]	further results
Cc1c2oc3c(C)ccc(C(=O)N[C@@H]4C(=O)N[C@H](C(C)C)C(=O)N5CCC[C@H]5C(=O)N(C)CC(=O)N(C)[C@@H](C(C)C)C(=O)O[C@@H]4C)c3nc-2c(C(=O)N[C@@H]2C(=O)N[C@H](C(C)C)C(=O)N3CCC[C@H]3C(=O)N(C)CC(=O)N(C)[C@@H](C(C)C)C(=O)O[C@@H]2C)c(N)c1=O [Act D, Actinomycin D] (I: T[dV]P[Sar][NMeV] / II: T[dV]P[Sar][NMeV]; ester I:1-I:C, II:1-II:C; linker I:N-II:N via Actinocin(9to1))	3.63 ± 1.13^a nmol Pi/mg protein/h	50.50 ± 8.06^d sec	473.28 ± 78.26^c U/g protein	29.76 ± 4.34^b U/mg protein	0.02±0.005	8.21 ± 2.29^g U/mg protein				
CC[C@H](C)[C@H](NC(=O)[C@H](Cc1ccccc1)NC(=O)[C@H](CC(=O)O)NC(=O)[C@H](CCCNC(=N)N)NC(=O)[C@H](C)NC(=O)[C@H](C)NC(=O)[C@H](CC(C)C)NC(=O)[C@H](CC(N)=O)NC(=O)[C@H](CC(=O)O)NC(=O)[C@H](CC(C)C)NC(=O)[C@@H](NC(=O)[C@@H](NC(=O)[C@H](CC(N)=O)NC(=O)[C@H](CCSC)NC(=O)[C@H](CCC(=O)O)NC(=O)[C@H](CC(=O)O)NC(=O)[C@H](CO)NC(=O)[C@H](Cc1ccccc1)NC(=O)[C@H](CO)NC(=O)CNC(=O)[C@H](CC(=O)O)NC(=O)CNC(=O)[C@@H](N)Cc1c[nH]cn1)[C@@H](C)O)[C@@H](C)CC)C(=O)N[C@@H](CC(N)=O)C(=O)N[C@@H](Cc1c[nH]c2ccccc12)C(=O)N[C@@H](CC(C)C)C(=O)N[C@H](C(=O)N[C@@H](CCC(N)=O)C(=O)N[C@H](C(=O)N[C@@H](CCCCN)C(=O)N[C@H](C(=O)N[C@H](C(=O)N[C@@H](CC(=O)O)C(=O)O)[C@@H](C)O)[C@@H](C)CC)[C@@H](C)O)[C@@H](C)CC [Teduglutide]	6.46 ± 1.13^a nmol Pi/mg protein/h	increases the TF activity	491.56 ± 171.49^b U/g protein	44.74 ± 7.52^d U/mg protein	0.00±0.00	7.36 ± 1.28^c U/mg protein	5.31 ± 1.71^b nmol MDA/mg protein	43.67 ± 8.25^c nmol GSH/mg protein	no significant change in apoptotic index	liver function tests (AST, ALT, ALP) and renal function tests (creatinine, urea, bilirubin, glomerular filtration speed) [3]: improvement in liver function tests; reliability of long term use ([4]; 52 patients, s.c. 0.05 or 0.10 mg/kg/day for 52 weeks): reliable for long term use in humans; adverse effect: abdominal pain [4, 8]: 25%; adverse effect: headache [4, 8]: 35%; adverse effect: nausea [4, 8]: 31%; TF (tissue factor (TF); listed as Tedoglutide): 47.28 ± 9.91^d sec; XO (xanthine oxidase (XO); listed as Tedoglutide): 17.46 ± 3.16^a U/mg protein; MPO (myeloperoxidase (MPO)): 88.93 ± 30.32^g mU/g tissue; GSH (GSH (glutathione); listed as teduglutide): increased significantly; type II pneumocytes in alveolar epithelium of mouse lung (type II pneumocytes): 16.65±1.13%; type II pneumocytes in alveolar epithelium of mouse lung (type II pneumocytes; listed as teduglutide): significant decrease in type II pneumocyte number; caspase-3 index in alveolar areas in mice (active caspase-3; listed as teduglutide): decreased significantly in individuals previously treated with teduglutide to which TNF-alpha/Act D was administered; structure of alveolar wall / alveolar epithelium under light microscope [6]: alveoli were in better condition
TNF-α	3.96 ± 0.71^a nmol Pi/mg protein/h	49.08 ± 10.40^d sec	453.86 ± 52.35^c U/g protein	42.44 ± 5.79^a U/mg protein	0.08±0.005	6.99 ± 2.57^f U/mg protein	4.51 ± 0.50^b nmol MDA/mg protein	10.16 ± 2.66^a nmol GSH/mg protein	0.41±0.04%	XO (xanthine oxidase (XO)): 21.53 ± 3.28^a U/mg protein; XO (xanthine oxidase (XO); listed as TNF-alpha): increased significantly; MPO (myeloperoxidase (MPO); listed as TKF-α): 193.80 ± 31.28^c mU/g tissue; MPO (myeloperoxidase (MPO); listed as TNF-alpha): increased significantly; LPO (lipid peroxidation (LPO); listed as TNF-alpha): increased significantly; GSH (GSH (glutathione); listed as TNF-alpha): increased significantly; apoptotic index in alveolar areas in mice ([5]; listed as TNF-alpha): no significant change in apoptotic index
human GLP-2: Human glucagon like peptide 2, 33 amino acid sequence (SEQUENCE ID No. 1) (HADGSFSDEMNTILDNLAARDFINWLIQTKIT; listed as Homo sapiens)										intestinal morphology, absorption, renal functions, bone mineral density and muscle functions [7]: does not change
